Values quoted from earlier work in patent publication US10894026B2, “Pharmaceutical compositions comprising a fumaric acid ester and method for the preparation thereof” (PHARMATHEN S.A., priority 2016, dated 2021).
Counter-ions that a name gives are not always drawn.

SMILES: COC(=O)/C=C/C(=O)OC [Dimethyl fumarate, (E)-2-butenedioic acid dimethyl ester]
- solubility in methanol (methanol): sparingly soluble
- solubility in water (water): insoluble
